{"source": "patent US20240391964A1", "about": "“COMPOSITIONS AND METHODS FOR THE TREATMENT OF CANCER” (The University of Western Australia, priority 2020, published 2024)", "key": {"SUM159 cells [1]": {"test_system": "SUM159 cells", "assay": "Cleaved caspase-3 immunoblot", "assay_type": "cell-based, human", "details": "24 hours"}, "T11 cells [2]": {"test_system": "T11 cells", "assay": "Cell viability assay of melittin variants, T11", "assay_type": "cell-based, murine", "details": "t-test p=0.652", "experimental": "FIG. 5 presents the lack of anticancer activity of DEDE-melittin, and the breast cancer cell selectivity of the melittin fusion peptide RGD1-melittin. FIG. 5A presents cell viability assays of TNBC (SUM159) and HER2-enriched (SKBR3) cells treated with DEDE-melittin for 24 hours. FIG. 5B presents cell viability assays of T11 cells treated with melittin, RGD1-melittin, SV40-melittin, TAT-melittin and DEDE-melittin. FIG. 5C presents cell viability assays of human dermal fibroblasts (HDFa) and SUM159 treated with melittin (top) and RGD1-melittin (bottom) for 24 hours.\nTo assess the functional role of the positive (K21RKR24) sequence (SEQ ID NO: 4) in the C-terminus of melittin, a negatively charged melittin peptide (D21EDE24-melittin; SEQ ID NO: 6) was designed. These negative residues were predicted to disrupt the binding of melittin with the plasma membrane. […] However, the potency of melittin and SV40-melittin were greater than TAT-melittin, which could be due to the larger size of TAT."}, "SUM159 cells [3]": {"test_system": "SUM159 cells", "assay": "Immunofluorescence subcellular localization with anti-melittin antibody", "assay_type": "cell-based, human", "details": "30 minutes, IC50 concentrations"}, "T11 cells [4]": {"test_system": "T11 cells", "assay": "Cell viability, combination with docetaxel", "assay_type": "cell-based, murine", "details": "T11, 48 hours", "experimental": "FIG. 15 presents the results of cell viability assays of T11 breast cancer cells treated with melittin or RGD1-melittin alone and in combination with docetaxel for 48 hours. Representative plots of the combination treatments are presented as mean±SEM.\nThe murine p53 TNBC cell line T11 was treated with docetaxel in combination with either melittin or RGD1-melittin, and cell viability assays were conducted to determine the combination effect between the treatments (FIG. 15)."}, "T11 cells [5]": {"test_system": "T11 cells", "assay": "Cell viability, combination with omomyc", "assay_type": "cell-based, murine", "details": "T11, 24 hours", "experimental": "FIG. 16 presents the results of cell viability assays of T11 breast cancer cells treated with melittin or RGD1-melittin alone and in combination with omomyc for 24 hours. Representative plots of the combination treatments are presented as mean±SEM.\nThe murine p53 TNBC cell line T11 was treated with omomyc in combination with either melittin or RGD1-melittin, and cell viability assays were conducted to determine the combination effect between the treatments (FIG. 16)."}, "COV362 cells": {"test_system": "COV362 cells", "assay_type": "cell-based", "experimental": "(§1) The OVCAR3 and COV362 ovarian cancer cell lines were treated with active RGD1-melittin and mutant RGD1-melittin (DEDE-RGD1-melittin). The COV362 cells were cultured in DMEM low glucose medium supplemented with 10% FBS. The OVCAR3 cells were grown in RPMI medium supplemented with 20% FBS. Cells were seeded overnight at a density of 5000 cells/p96-well plate and treated with active RGD1-melittin and mutant RGD1-melittin (RGD1-DEDE melittin), for 24 h at concentrations up to 20 µM. After treatments, cell viability was assessed using the CellTiter-Glo® assay according to the manufacturer's protocol (Promega; NSW, Australia). Luminescence signals were measured using the EnVision Multilabel Plate Reader (PerkinsElmer Inc.; Waltham, MA, USA). IC50s were calculated and transformed 95% confidence intervals provided by GraphPad Prism 6 software analysis (GraphPad Software Inc., San Diego, CA, USA)."}, "OVCAR3 cells": {"test_system": "OVCAR3 cells", "assay_type": "cell-based", "experimental": "as §1"}, "[6]": {"test_system": "Ki-67 and PD-L1 in T11, SUM159 and SKBR3 cells", "assay": "Immunofluorescence of Ki-67 and PD-L1", "assay_type": "cell-based", "details": "24 h at IC50 concentrations, all three cell lines", "experimental": "The expression of PD-L1 of TNBC cells (T11 and SUM159) and HER2-enriched breast cancer cells (SKBR3) treated with active RGD1-melittin and mutant RGD1-melittin (DEDE RGD1-melittin) was measured using immunofluorescence.\nCells were seeded overnight on coverslips at a density of 3×105 in a p24-well plate coated with poly-L-lysine (Sigma-Aldrich) for 20 min and then washed twice with purified water. […] The cells were washed three times with PBS and then incubated with a goat α-mouse secondary Alexa Fluor 488-conjugated antibody (Thermo Fisher Scientific #A11001, 1:500) and Hoechst-33258 (1:5000) in PBS for 1 h at room temperature. After three more washes of PBS, the coverslip containing cells were mounted onto glass […] with SlowFade Diamond Antifade Mountant (Thermo Fisher Scientific). Slides were imaged using the confocal fluorescence Nikon Ti inverted microscope. Images were taken at 40× magnification and processed using ImageJ."}, "[7]": {"test_system": "PD-L1 in T11, SUM159 and SKBR3 cells", "assay": "qRT-PCR of PD-L1 expression", "assay_type": "cell-based", "details": "24 h at IC50; p<0.005 T11, p<0.05 SUM159, p<0.005 SKBR3", "experimental": "The level of PD-L1 expression was also measured in T11, SUM159 and SKBR3 treated with active RGD1-melittin and mutant RGD1-melittin peptides, or vehicle treated only, using qRT-PCR.\nCells were seeded overnight at a density of 3×105 in a p6-well plate. […] Cells were washed once with PBS before RNA was extracted from the cells using QIAzol Lysis. Reagent (QIAGEN) according to manufacturer's instructions. 500 ng of purified total RNA was used as the template for cDNA synthesis using the High Capacity cDNA Reverse Transcription Kit (Applied Biosystems). Relative quantification of PD-L1 transcript expression was obtained by quantitative real-time PCR (qRT-PCR) using fluorescent TaqMan probes (Applied Biosystems) and run on the ViiA 7TM Real-Time PCR machine (Applied Biosystems). Data were analysed by QuantStudio Real-Time PCR Software (Applied Biosystems) and results were expressed as fold change compared to untreated cells, respectively, after normalization against the GAPDH mRNA levels."}, "[8]": {"test_system": "T11, OVCAR3, SUM159 and SKBR3 cells", "assay": "Cell viability, RGD1-melittin with docetaxel", "assay_type": "cell-based", "details": "24 h, non-constant ratio", "experimental": "(§2) Cell viability assays of T11, OVCAR3, SUM159 and SKBR3 cells treated with RGD1-melittin alone and in combination with docetaxel were performed. Cells were seeded overnight at a density of 5000 cells/p96-well plate and treated with active RGD1-melittin alone or combined with docetaxel and administered at concentrations indicated in a non-constant ratio in the respective cell lines for 24 h. Cell viability was assessed using the CellTiter-Glo® assay.\n(§3) The combination effect for different fractions of cells impacted in each combination were calculated using the Chou and Talalay algorithm included in the freely available CompuSyn software. Combination index (CI)<1 means synergism, CI=1 means additive and CI>1 means antagonism."}, "[9]": {"test_system": "T11, OVCAR3 and COV362 cells", "assay": "Cell viability, RGD1-melittin with cisplatin", "assay_type": "cell-based", "details": "24 h, non-constant ratio", "experimental": "as §2, with “T11, OVCAR3, and COV362” for “T11, OVCAR3, SUM159 and SKBR3”, “OVCAR3, and COV362 cells treated” for “SUM159 and SKBR3 cells treated”, “combination with cisplatin were performed.” for “combination with docetaxel were performed.”\nas §3"}, "SUM159 cells [10]": {"test_system": "SUM159 cells", "details": "24 hours, mean±SEM"}}, "data": [{"compound": "CC[C@H](C)[C@H](NC(=O)CNC(=O)[C@H](CCCCN)NC(=O)[C@H](CCCCN)NC(=O)[C@H](CC(C)C)NC(=O)[C@H](CCCNC(=N)N)NC(=O)CNC(=O)[C@H](CC(C)C)NC(=O)[C@H](CC(=O)O)NC(=O)CNC(=O)[C@H](CCCNC(=N)N)NC(=O)CNC(=O)[C@@H](N)Cc1c[nH]cn1)C(=O)NCC(=O)N[C@@H](C)C(=O)N[C@H](C(=O)N[C@@H](CC(C)C)C(=O)N[C@@H](CCCCN)C(=O)N[C@H](C(=O)N[C@@H](CC(C)C)C(=O)N[C@H](C(=O)N[C@H](C(=O)NCC(=O)N[C@@H](CC(C)C)C(=O)N1CCC[C@H]1C(=O)N[C@@H](C)C(=O)N[C@@H](CC(C)C)C(=O)N[C@H](C(=O)N[C@@H](CO)C(=O)N[C@@H](Cc1c[nH]c2ccccc12)C(=O)N[C@H](C(=O)N[C@@H](CCCCN)C(=O)N[C@@H](CCCNC(=N)N)C(=O)N[C@@H](CCCCN)C(=O)N[C@@H](CCCNC(=N)N)C(=O)N[C@@H](CCC(N)=O)C(=O)N[C@@H](CCC(N)=O)C(=O)O)[C@@H](C)CC)[C@@H](C)CC)[C@@H](C)O)[C@@H](C)O)C(C)C)C(C)C", "note": "[RGD1-melittin]", "values": [{"measurement": "induction of apoptosis (cleaved caspase-3)", "setting": "SUM159 cells [1]", "result": "confirmed the anticancer activity"}, {"measurement": "IC50 compared to parental melittin", "setting": "T11 cells [2]", "result": "not significantly different compared to parental melittin"}, {"measurement": "subcellular localization / anti-melittin staining", "setting": "SUM159 cells [3]", "result": "distinctively targeted to the plasma membrane alone"}, {"measurement": "combination effect with docetaxel on cell viability", "setting": "T11 cells [4]", "result": "beneficial effect when combined with docetaxel"}, {"measurement": "combination effect with omomyc on cell viability", "setting": "T11 cells [5]", "result": "beneficial effect when combined with omomyc"}, {"measurement": "fold lower IC50 than active melittin", "setting": "COV362 cells; COV362", "result": "approximately 3.7 fold"}, {"measurement": "IC50", "setting": "COV362 cells; COV362, 24 h", "result": 2100, "unit": "nM"}, {"measurement": "fold lower IC50 than active melittin", "setting": "OVCAR3 cells; OVCAR3", "result": "approximately 6 fold"}, {"measurement": "IC50", "setting": "OVCAR3 cells; OVCAR3, 24 h", "result": 3.36, "unit": "µM"}, {"measurement": "PD-L1 expression (immunofluorescence)", "setting": "[6]", "result": "reduced"}, {"measurement": "cell proliferation (Ki-67)", "setting": "[6]", "result": "reduced"}, {"measurement": "level of PD-L1 (qRT-PCR)", "setting": "[7]", "result": "significantly reduce"}, {"measurement": "sensitization to docetaxel (cell viability, combination index)", "setting": "[8]", "result": "significantly sensitized all four tested cell lines to docetaxel"}, {"measurement": "sensitization to cisplatin (cell viability, combination index)", "setting": "[9]", "result": "significantly sensitized all three tested cell lines to cisplatin"}, {"measurement": "ratio of the IC50s of HDFa/SUM159", "setting": "SUM159 cells [10]", "result": "2.73±0.14"}]}]}
